Data on 3 compounds can be found in ChEMBL document CHEMBL1144621, “Pharmacophore modeling and in silico screening for new KDR kinase inhibitors” (Bioorg Med Chem Lett, 2007).

Each structure is given as a SMILES string.

In the assay the target is Vascular endothelial growth factor receptor 2 (Homo sapiens, UniProt P35968).
Sequence of Vascular endothelial growth factor receptor 2 (P35968 whole entry): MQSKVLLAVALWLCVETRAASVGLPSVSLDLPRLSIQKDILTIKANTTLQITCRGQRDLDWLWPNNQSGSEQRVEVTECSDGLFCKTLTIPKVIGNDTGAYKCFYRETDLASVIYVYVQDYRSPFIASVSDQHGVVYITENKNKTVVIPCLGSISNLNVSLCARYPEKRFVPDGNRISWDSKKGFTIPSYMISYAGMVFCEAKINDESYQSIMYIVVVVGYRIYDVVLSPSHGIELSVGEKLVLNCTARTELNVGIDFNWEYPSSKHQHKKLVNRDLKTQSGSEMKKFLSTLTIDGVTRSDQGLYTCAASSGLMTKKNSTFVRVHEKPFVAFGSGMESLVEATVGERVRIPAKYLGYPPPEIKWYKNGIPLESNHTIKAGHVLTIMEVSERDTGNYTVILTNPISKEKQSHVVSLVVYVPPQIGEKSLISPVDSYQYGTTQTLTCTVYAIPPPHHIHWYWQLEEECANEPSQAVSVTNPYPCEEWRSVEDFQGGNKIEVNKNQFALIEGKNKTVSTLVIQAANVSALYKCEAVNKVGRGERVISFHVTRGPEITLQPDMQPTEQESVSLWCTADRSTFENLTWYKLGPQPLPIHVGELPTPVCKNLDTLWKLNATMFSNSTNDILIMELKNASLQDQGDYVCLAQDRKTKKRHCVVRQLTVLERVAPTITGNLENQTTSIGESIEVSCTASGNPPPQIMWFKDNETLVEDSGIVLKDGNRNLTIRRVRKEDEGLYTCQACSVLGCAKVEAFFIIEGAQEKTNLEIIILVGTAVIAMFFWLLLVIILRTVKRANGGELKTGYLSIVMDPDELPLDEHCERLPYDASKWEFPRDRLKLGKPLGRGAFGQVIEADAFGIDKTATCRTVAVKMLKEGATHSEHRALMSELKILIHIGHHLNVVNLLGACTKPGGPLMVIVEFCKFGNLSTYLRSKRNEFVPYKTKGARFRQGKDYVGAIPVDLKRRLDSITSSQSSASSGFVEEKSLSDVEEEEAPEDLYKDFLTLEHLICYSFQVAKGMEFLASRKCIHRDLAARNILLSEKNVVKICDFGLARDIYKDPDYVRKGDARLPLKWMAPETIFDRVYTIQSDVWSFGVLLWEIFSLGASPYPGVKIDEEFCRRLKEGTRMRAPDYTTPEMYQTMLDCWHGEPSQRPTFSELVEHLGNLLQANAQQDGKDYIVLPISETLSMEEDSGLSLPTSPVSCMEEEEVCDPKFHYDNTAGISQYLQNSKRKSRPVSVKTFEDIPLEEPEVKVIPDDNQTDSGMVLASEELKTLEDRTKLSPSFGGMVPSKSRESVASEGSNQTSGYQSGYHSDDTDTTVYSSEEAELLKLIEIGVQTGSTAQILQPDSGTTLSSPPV
`Cn1cccc1/C=C1/C(=O)Nc2ccccc21` returned an IC50 of 20 µM.
To `Cc1cccc2c1/C(=C\c1ccc[nH]1)C(=O)N2` belongs 31 µM.
The figure for `O=C1Nc2ccccc2/C1=C\c1sccc1Br` is 15.4 µM.
